Each block holds one molecule with its values, some of them ahead of it.
Tests used:
[1] = Henry solubility constant Hcp at 310 K (mol/(m3 Pa))
[2] = Henry solubility constant Hcp at 293 K (mol/(m3 Pa))
[3] = Henry solubility constant Hcp at 298.15 K (mol/(m3 Pa))
[4] = reference: De Maagd et al. (1998)
[5] = reference: Yurteri et al. (1987)
[6] = reference: Mackay et al. (1979)
[7] = reference: Chiang et al. (1998)
[8] = reference: Warner et al. (1980)
[9] = reference: Vitenberg et al. (1975)
[10] = reference: Schuhfried et al. (2011)

Henry solubility constant Hcp at 310 K ([1]; reference: Falk et al. (1990)): 0.00016
SMILES: CC1=CCC2C(C1)C2(C)C (configuration not stated) [3,7,7-trimethyl-bicyclo[4.1.0]hept-3-ene]

Henry solubility constant Hcp at 293 K [2, 4]: 0.022
Henry solubility constant Hcp at 293 K [2, 5]: 0.027
Henry solubility constant Hcp ([3]; reference: Alaee et al. (1996)): 0.023
Henry solubility constant Hcp ([3]; reference: Bobadilla et al. (2003)): 0.04
Henry solubility constant Hcp [3, 6]: 0.02
Henry solubility constant Hcp ([3]; reference: Schwarz and Wasik (1977)): 0.022
Henry solubility constant Hcp ([3]; reference: Southworth (1979)): 0.018
Henry solubility constant Hcp ([3]; reference: Webster et al. (1985)): 0.026
SMILES: c1ccc2ccccc2c1 [naphthalene]

Henry solubility constant Hcp at 293 K [2, 4]: 0.34
Henry solubility constant Hcp ([3]; reference: Alaee et al. (1996)): 0.21
Henry solubility constant Hcp ([3]; reference: Bamford et al. (1999b)): 0.16
Henry solubility constant Hcp [3, 6]: 0.25
Henry solubility constant Hcp ([3]; reference: Odabasi et al. (2006)): 0.27
Henry solubility constant Hcp ([3]; reference: Southworth (1979)): 0.18
SMILES: c1ccc2c(c1)ccc1ccccc12 [phenanthrene]

SMILES: COP(=S)(OC)Oc1ccc([N+](=O)[O-])cc1 [methylparathion]
Henry solubility constant Hcp at 293 K ([2]; reference: Rice et al. (1997b)): 260
Henry solubility constant Hcp ([3]; reference: Metcalfe et al. (1980)): 99

SMILES: CN(C)N=O [N-nitrosodimethylamine]
Henry solubility constant Hcp at 293 K ([2]; reference: Haruta et al. (2011)): 4.1
Henry solubility constant Hcp ([3]; reference: Klein (1982)): 6.1
Henry solubility constant Hcp ([3]; reference: Thompson et al. (2018)): 0.29

SMILES: ClC(Cl)(Cl)Cl [tetrachloromethane]
Henry solubility constant Hcp at 293 K [2, 7]: 0.0004
Henry solubility constant Hcp at 293 K ([2]; reference: Pearson and McConnell (1975)): 0.00045
Henry solubility constant Hcp at 293 K [2, 5]: 0.00043
Henry solubility constant Hcp ([3]; reference: Balls (1980)): 0.00032
Henry solubility constant Hcp ([3]; reference: Bissonette et al. (1990)): 0.00028
Henry solubility constant Hcp ([3]; reference: Bullister and Wisegarver (1998)): 0.00029
Henry solubility constant Hcp ([3]; reference: Chen et al. (2012)): 0.0003
Henry solubility constant Hcp ([3]; reference: Gossett (1987)): 0.00033
Henry solubility constant Hcp ([3]; reference: Hartkopf and Karger (1973)): 0.00037
Henry solubility constant Hcp ([3]; reference: Hunter-Smith et al. (1983)): 0.00041
Henry solubility constant Hcp ([3]; reference: Lutsyk et al. (2005)): 0.00034
Henry solubility constant Hcp ([3]; reference: Munz and Roberts (1986)): 0.00042
Henry solubility constant Hcp ([3]; reference: Munz and Roberts (1987)): 0.00033
Henry solubility constant Hcp ([3]; reference: Park et al. (1997)): 0.00039
Henry solubility constant Hcp ([3]; reference: Tancrède and Yanagisawa (1990)): 0.00034
Henry solubility constant Hcp [3, 8]: 0.00033

SMILES: ClC1=C(Cl)[C@]2(Cl)[C@@H]3[C@@H]4C[C@@H]([C@H]5O[C@@H]45)[C@@H]3[C@@]1(Cl)C2(Cl)Cl [dieldrin]
Henry solubility constant Hcp at 293 K ([2]; reference: Slater and Spedding (1981)): 0.34
Henry solubility constant Hcp [3, 8]: 0.17

SMILES: Clc1ccc(Cl)cc1 [1,4-dichlorobenzene]
Henry solubility constant Hcp at 293 K [2, 7]: 0.0025
Henry solubility constant Hcp at 293 K [2, 5]: 0.0052
Henry solubility constant Hcp ([3]; reference: Li et al. (2008)): 0.0033
Henry solubility constant Hcp [3, 8]: 0.0036

Henry solubility constant Hcp at 310 K ([1]; reference: Ercan (1979)): 3.2e-05
SMILES: [134Xe] [xenon-133]

SMILES: CCC(=O)OO[N+](=O)[O-] [peroxypropionyl nitrate]
Henry solubility constant Hcp at 293 K ([2]; reference: Kames and Schurath (1995)): 0.029
Henry solubility constant Hcp ([3]; reference: Easterbrook et al. (2023)): 0.016

SMILES: CCSSCC [diethyl disulfide]
Henry solubility constant Hcp at 293 K [2, 9]: 0.0047
Henry solubility constant Hcp [3, 10]: 0.0037

SMILES: Cc1ccc(O)c(C)c1 [1-hydroxy-2,4-dimethylbenzene]
Henry solubility constant Hcp at 293 K ([2]; reference: Sheikheldin et al. (2001)): 6.6
Henry solubility constant Hcp ([3]; reference: Dohnal and Fenclová (1995)): 4.9

SMILES: CC#N [ethanenitrile]
Henry solubility constant Hcp at 293 K ([2]; reference: Yu (1992)): 0.082
Henry solubility constant Hcp ([3]; reference: Bebahani et al. (2002)): 0.49
Henry solubility constant Hcp ([3]; reference: Benkelberg et al. (1995)): 0.53
Henry solubility constant Hcp ([3]; reference: Hamm et al. (1984)): 0.53
Henry solubility constant Hcp ([3]; reference: Ji and Evans (2007)): 0.52
Henry solubility constant Hcp ([3]; reference: Snider and Dawson (1985)): 0.48

Henry solubility constant Hcp at 293 K ([2]; reference: Bone et al. (1983)): 60000
Henry solubility constant Hcp ([3]; reference: Kim et al. (2008)): 4200
SMILES: NCCO [ethanolamine]

SMILES: CSC [dimethyl sulfide]
Henry solubility constant Hcp at 293 K [2, 9]: 0.0061
Henry solubility constant Hcp ([3]; reference: Barcellos da Rosa et al. (2003)): 0.0064
Henry solubility constant Hcp ([3]; reference: Bruneel et al. (2016)): 0.0047
Henry solubility constant Hcp ([3]; reference: Coquelet and Richon (2005)): 0.0052
Henry solubility constant Hcp ([3]; reference: Dacey et al. (1984)): 0.0055
Henry solubility constant Hcp ([3]; reference: De Bruyn et al. (1995b)): 0.0047
Henry solubility constant Hcp ([3]; reference: Gershenzon et al. (2001)): 0.0047
Henry solubility constant Hcp ([3]; reference: Iliuta and Larachi (2005a)): 0.0055
Henry solubility constant Hcp ([3]; reference: Lovelock et al. (1972)): 0.0016
Henry solubility constant Hcp ([3]; reference: Marin et al. (1999)): 0.016
Henry solubility constant Hcp ([3]; reference: Pollien et al. (2003)): 0.0049
Henry solubility constant Hcp [3, 10]: 0.0046
Henry solubility constant Hcp ([3]; reference: Straver and de Loos (2005)): 0.0049
Henry solubility constant Hcp ([3]; reference: Wong and Wang (1997)): 0.0042

SMILES: OCl [hypochlorous acid]
Henry solubility constant Hcp at 293 K ([2]; reference: Blatchley et al. (1992)): 9.1
Henry solubility constant Hcp at 293 K ([2]; reference: McCoy et al. (1990)): 9
Henry solubility constant Hcp ([3]; reference: Hanson and Ravishankara (1991)): 4.7
Henry solubility constant Hcp ([3]; reference: Holzwarth et al. (1984)): 6
Henry solubility constant Hcp ([3]; reference: Imagawa (1950)): 12
Henry solubility constant Hcp ([3]; reference: Ourisson and Kastner (1939)): 6.4
